In US20100324067A1, “TETRACYCLIC DIPYRANO-COUMARIN COMPOUNDS WITH ANTI-HIV AND ANTI-MYCOBACTERIUM TUBERCULOSIS ACTIVITIES” (priority 2007, published 2010):
Converted amounts (≈) assume the structure as drawn. Where two headings read alike, the source gives them in different places.

Experiments:
[1] = test system: host cells of the virus; assay: Cell toxicity to the host cells of the virus at 10 μM; type: cell-based
[2] = test system: Mycobacterium tuberculosis H37Rv (ATCC 27294); assay: Microplate Alamar Blue Assay (MABA) in BACTEC 12B medium (TAACF screen); type: cell-based
[3] = test system: HIV-1; assay: Inhibitory activity against HIV-1 (literature method, Chen et al. J Virol 1997); conditions: for EC50: Human immunodeficiency virus 1; for inhibition at 1 µM: Human immunodeficiency virus 1, read-out: Anti-HIV (%, 1.0 μM); for anti-HIV-1 activity in vitro compared to (+)-calanolide A / therapeutic index, in words: in words; for Therapeutic index (TI) = 50% cytotoxicity doses/50% effective dose: value in brackets after EC50; for Anti-HIV (%, 1.0 μM): compound at 1.0 μM
Procedure: Inhibitory activity of the coumarin derivatives of the present invention against HIV-1.
Inhibitory activity of the compounds against HIV-1 is assayed using the literature method. The experimental conditions, procedures, reagents and so on of the experiment are referred to the reference of “ZHIWEI CHEN, PEI ZHOU, DAVID D. HO, et al. Genetically divergent strains of simian immuno-deficiency virus use CCR5 as a coreceptor for entry. Journal of Virology, 1997, 71(4): 2705-2714”.

[4] = read-out: anti-TB active compound (MIC90 less than 10 μg/mL), classification

## CCCc1cc(=O)oc2c3c(c4c(c12)OC(C)(C)C=C4)OC(CBr)CC3=O (stereo not shown) [Example 57]
[1]
  Cell toxicity (10 μM): −
[2]
  IC50: 0.825 µg/mL (≈ 1.9 µM)
[2]; MABA, H37Rv, read-out: MIC90
  MIC90: 1.75 µg/mL (≈ 4.05 µM)
[3]
  EC50: 2.85 nM
  inhibition at 1 µM: 93.5%
  anti-HIV-1 activity in vitro compared to (+)-calanolide A: much higher inhibitory activity
  therapeutic index, in words: high therapeutic index
  Therapeutic index (TI) = 50% cytotoxicity doses/50% effective dose: > 10526

## CCCc1c(Cl)c(=O)oc2c3c(c4c(c12)OC(C)C=C4)OC(C)CC3=O (stereo not shown) [Example 81, 6,10-dimethyl-4-n-propyl-3-chloro-2H,6H,12H-benzo[1,2-b:3,4-b′:5,6-b″]-tripyranyl-2,12-dione]
[1]
  Cell toxicity (10 μM): −
other
  melting point: 129 to 131 °C
[3]
  inhibition at 1 µM: 55.7%

## CCCc1cc(=O)oc2c3c(c4c(c12)OC(c1ccccc1[N+](=O)[O-])C=C4)OC(C)CC3=O (stereo not shown) [Example 97]
[1]
  Cell toxicity (10 μM): −
other
  melting point: 216 to 218 °C
[3]
  inhibition at 1 µM: 52.6%

## CCCc1cc(=O)oc2c3c(c4c(c12)OC(C)(C)C=C4)OC1CC1C3=O (stereo not drawn) [Example 70, 6,6,-dimethyl-4-propyl-10,11-cis-cyclopropyl-2H,6H,12H-benzo[1,2-b:3,4-b′:5,6-b″]tripyranyl-2,12-dione]
[1]
  Cell toxicity (10 μM): −
other
  melting point: 113 to 115 °C
[2]
  IC50: 3.31 µg/mL (≈ 9.38 µM)
[2]; MABA, H37Rv, read-out: MIC90
  MIC90: 5.54 µg/mL (≈ 15.7 µM)
[2]; [4]
  MIC90: < 10 µg/mL
[3]
  EC50: 14.1 nM
  inhibition at 1 µM: 68.6%
  anti-HIV-1 activity in vitro compared to (+)-calanolide A: much higher inhibitory activity
  therapeutic index, in words: high therapeutic index
  Therapeutic index (TI) = 50% cytotoxicity doses/50% effective dose: 709-2127

## CC1CC(=O)c2c(c3c(c4c5c(c(=O)oc24)CCCC5)OC(C)(C)C=C3)O1 (stereo not shown) [Example 27, 6,6,10-trimethyl-3,4-cyclohexyl-2H,6H,12H-benzo[1,2-b:3,4-b′:5,6-b″]-tripyranyl-2,12-dione]
[1]
  Cell toxicity (10 μM): −
other
  melting point: 121 to 123 °C
[3]
  inhibition at 1 µM: 67%

## CC1CC(=O)c2c(c3c(c4c(CCC(F)(F)F)cc(=O)oc24)OC(c2ccccc2)C=C3)O1 (stereo not shown) [Example 74, 4-(3,3′, 3″-trifluoro-n-propyl)-6-phenyl-O-methyl-2H,6H, 2H-benzo[1,2-b:3,4-b′:5,6-b″]-tripyranyl-2,12-dione]
[1]
  Cell toxicity (10 μM): −
other
  melting point: 171 to 173 °C
[2]
  IC50: 5.7 µg/mL (≈ 12.5 µM)
[2]; MABA, H37Rv, read-out: MIC90
  MIC90: 6.38 µg/mL (≈ 14 µM)
[2]; [4]
  MIC90: < 10 µg/mL
[3]
  inhibition at 1 µM: 47.6%

## CCCc1c(Cl)c(=O)oc2c3c(c4c(c12)OCC(C)=C4)OC(C)CC3=O (stereo not shown) [Example 91, 4-n-propyl-3-chloro-7,10-dimethyl-2H,6H,12H-benzo[1,2-b:3,4-b′:5,6-b″]-tripyranyl-2,12-dione]
[1]
  Cell toxicity (10 μM): −
other
  melting point: 129 to 131 °C
[3]
  inhibition at 1 µM: 49.1%

## CCCc1cc(=O)oc2c3c(c4c(c12)OC(C)(C)C=C4)OC(C)CC3=O (stereo not shown) [Example 29, 6,6,10-trimethyl-4-n-propyl-2H,6H,12H-benzo[1,2-b:3,4-b′:5,6-b″]-tripyranyl-2,12-dione]
[1]
  Cell toxicity (10 μM): −
other
  melting point: 112 to 115 °C
[3]
  Anti-HIV (%, 1.0 μM): 73.1%

## CCCc1cc(=O)oc2c1c1c(c3occc(=O)c32)C=CC(C)(C)O1 [Example 13, 6,6-dimethyl-4-n-propyl-2H,6H,12H-benzo[1,2-b:3,4-b′:5,6-b″]-tripyranyl-2,12-dione]
[1]
  Cell toxicity (10 μM): −
other
  melting point: 102 to 104 °C
[3]
  inhibition at 1 µM: 64.9%

## CCCc1c(Cl)c(=O)oc2c3c(c4c(c12)OC(C)(C)C=C4)OC(C)CC3=O (stereo not shown) [Example 20, 6,6,10-trimethyl-3-chrolo-4-n-propyl-2H,6H,12H-benzo[1,2-b:3,4-b′:5,6-b″]-tripyranyl-2,12-dione]
[1]
  Cell toxicity (10 μM): −
[3]
  EC50: 370 nM
  inhibition at 1 µM: 68.1%
  Therapeutic index (TI) = 50% cytotoxicity doses/50% effective dose: 243-730

## CCc1cc(=O)oc2c3c(c4c(c12)OC(C)(C)C=C4)OC(C)CC3=O (stereo not shown) [Example 9]
[1]
  Cell toxicity (10 μM): −
[3]
  EC50: 270 nM
  inhibition at 1 µM: 73.2%
  Therapeutic index (TI) = 50% cytotoxicity doses/50% effective dose: > 1000

## CCCc1cc(=O)oc2c3c(c4c(c12)OC(C)(C)C=C4)OC(C)CC3O (single isomer, unassigned; (+)) [(+)-11-demethyl Calanolide A, reference compound]
[1]; class symbol, share of host cells of the virus died at 10 μM compound
  Cell toxicity (10 μM): ++ (10-80%)
[1]; host cells of the virus died at 10 μM compound
  Cell toxicity (10 μM), number printed before the class symbol: 54%
[3]
  Anti-HIV (%, 1.0 μM): 75%

## CCCc1c(Cl)c(=O)oc2c3c(c4c(c12)OCC(C)C4OCC)OC(C)CC3=O (stereo not shown) [Example 96, 8-ethoxyl-7,10-dimethyl-4-n-propyl-3-chloro-7,8,10,11-tetrahydro-6H-benzo[2,3-f;2′,3′-h]-tripyranyl-2,12-dione]
[1]
  Cell toxicity (10 μM): −
other
  melting point: 187 to 189 °C
[2]
  IC50: 11.1 µg/mL (≈ 26.4 µM)
[2]; MABA, H37Rv, read-out: MIC90
  MIC90: 22.2 µg/mL (≈ 52.8 µM)
[3]
  inhibition at 1 µM: 51.7%

## CCc1c(F)c(=O)oc2c3c(c4c(c12)OC(C)C=C4)OC(C)CC3=O (stereo not shown) [Example 83, 6,10-dimethyl-4-ethyl-3-fluoro-2H, H, 12H-benzo[1,2-b:3,4-b′: 5,6-b″]-tripyranyl-2,12-dione]
[1]
  Cell toxicity (10 μM): −
other
  melting point: 141 to 142 °C
[2]
  IC50: 24.4 µg/mL (≈ 70.9 µM)
[2]; MABA, H37Rv, read-out: MIC90
  MIC90: 27.7 µg/mL (≈ 80.4 µM)
[3]
  inhibition at 1 µM: 39.5%

## CC1CC(=O)c2c(c3c(c4c(CN5CCN(C)CC5)cc(=O)oc24)OC(C)(C)C=C3)O1 (stereo not shown) [Example 7, 6,6,10-trimethyl-4-p-methylpiperazidinylmethylene-10,11-dihydro-6H-[2,3-f:2′,3′-h]-tri pyranyl-2,12-dione]
[1]
  Cell toxicity (10 μM): −
other
  melting point: 238 to 239 °C
[3]
  inhibition at 1 µM: 48.3%

## C/C=C/C1C=Cc2c3c(c4oc(=O)c(Cl)c(CCC)c4c2O1)C(=O)CC(C)O3 (stereo not shown) [Example 86, 4-n-propyl-6-propenyl-3-chloro-10-methyl-2H,6H,12H-benzo[1,2-b:3,4-b′:5,6-b″]-tripyranyl-2,12-dione]
[1]
  Cell toxicity (10 μM): −
other
  melting point: 142 to 144 °C
[3]
  inhibition at 1 µM: 57.3%

## CCc1cc(=O)oc2c3c(c4c(c12)OC(C)C=C4)OC(C)CC3=O (stereo not shown) [Example 79, 6,10-dimethyl-4-ethyl-2H,6H,12H-benzo[1,2-b:3,4-b′:5,6-b″]-tripyranyl-2,12-dione]
[1]
  Cell toxicity (10 μM): −
other
  melting point: 133 to 134 °C
[2]
  IC50: 6.07 µg/mL (≈ 18.6 µM)
[2]; MABA, H37Rv, read-out: MIC90
  MIC90: 6.84 µg/mL (≈ 21 µM)
[3]
  inhibition at 1 µM: 57.4%

## CCCc1cc(=O)oc2c3c(c4c(c12)OC(C)(C)C=C4)OC(c1ccc(C)cc1)CC3=O (stereo not shown) [Example 17, 6,6-dimethyl-4-n-propyl-10-p-methyl-phenyl-2H,6H,12H-benzo[1,2-b:3,4-b′:5,6-b″]-tripyranyl-2,12-dione]
[1]
  Cell toxicity (10 μM): −
other
  melting point: 174 to 176 °C
[3]
  inhibition at 1 µM: 57%

## CCCCC1C=Cc2c3c(c4oc(=O)cc(CCC(F)(F)F)c4c2O1)C(=O)CC(C)O3 (stereo not shown) [Example 73, 4-(3,3′,3″-trifluoro-n-propyl)-6-n-butyl-10-methyl-2H,6H,12H-benzo[1,2-b:3,4-b′: 5,6-b″]-tripyranyl-2,12-dione]
[1]
  Cell toxicity (10 μM): −
other
  melting point: 129 to 130 °C
[3]
  inhibition at 1 µM: 53.6%

## CCCc1c(F)c(=O)oc2c3c(c4c(c12)OCC(C)=C4)OC(C)CC3=O (stereo not shown) [Example 92]
[1]
  Cell toxicity (10 μM): −
other
  melting point: 122 to 124 °C
[3]
  inhibition at 1 µM: 47.1%

## COc1cc(-c2cc(=O)oc3c4c(c5c(c23)OC(C)(C)C=C5)OC(C)CC4=O)cc(OC)c1OC (stereo not shown) [Example 24, 6,6,10-trimethyl-4-(3,4,5-trimethoxyl)-phenyl-2H,6H,12H-benzo[1,2-b:3,4-b′:5,6-b″]-tripyranyl-2,12-dione]
[1]
  Cell toxicity (10 μM): −
other
  melting point: 129 to 131 °C
[3]
  inhibition at 1 µM: 58%

## C/C=C/C1C=Cc2c3c(c4oc(=O)c(F)c(CC)c4c2O1)C(=O)CC(C)O3 (stereo not shown) [Example 88, 4-ethyl-6-propenyl-3-fluoro-10-methyl-2H,6H,12H-benzo[1,2-b:3,4-b′:5,6-b″]-tripyranyl-2,12-dione]
[1]
  Cell toxicity (10 μM): −
other
  melting point: 158 to 161 °C
[2]
  IC50: 70.7 µg/mL (≈ 191 µM)
[2]; MABA, H37Rv, read-out: MIC90
  MIC90: > 100 µg/mL
[3]
  inhibition at 1 µM: 46.2%

## C/C=C/C1C=Cc2c3c(c4oc(=O)cc(CCC)c4c2O1)C(=O)C(C)CO3 (stereo not shown) [Example 76, 4-n-propyl-6-propenyl-11-methyl-2H,6H,12H-benzo[1,2-b:3,4-b′:5,6-b″]-tripyranyl-2,12-dione]
[1]
  Cell toxicity (10 μM): −
other
  melting point: 165 to 166 °C
[3]
  inhibition at 1 µM: 37.8%
